A value given as a limit tells only on which side of the number the result lay.

The subject of one assay is THP-1 Lucia ISG cells. The experiment in a line: ISG-LUC activation assay (ISRE-luciferase assay). It counts as cell-based. As to conditions: Homo sapiens, THP1-Lucia ISG, 24 h, read-out: ISG-LUC activation assay score. From the text: We have established a robust platform for identifying non-nucleotide small molecule STING agonists. his has been established using a primary assay involving a human THP-1 cell line carrying an IRF-inducible reporter with 5 copies of the IFN signaling response element. Counter screens, involving alternative reporter constructs, rodent cell-based assays, as well as cGAS and STING knock-out cell lines, are used to eliminate luciferase artifacts and ensure human-rodent cross species reactivity, as well as pathway selectivity. Biochemical assays, involving cGAS enzymatic activity and STING protein binding assays, are used to identify the specific target of identified hits.
Tissue culture. Wild-type (cat. no. thpl-isg) and STING KO (cat. no. thpd-kostg) THP-1-Lucia ISG cells were purchased from Invivogen and maintained in growth media consisting of RPMI 1640, 2mM L-glutamine, […], 10% heat-inactivated fetal bovine serum (FBS), 1,000 units/ml penicillin, 1,000 μg/ml streptomycin, 0.25 μg/ml Amphotericin B, and 100 μg/ml zeocin unless otherwise stated.
ISRE-luciferase assay. THP-1 Lucia ISG cells were resuspended in low-serum growth media (2% FBS) at a density of 5×10^5 cells/ml and treated with test article or vehicle (DMSO). 50 μL of cells were seeded into each well of a 384-well white greiner plates and incubated for 24 hours. To evaluate expression of the luciferase reporter, 30 μl of Quanti-luc (Invivogen) detection reagent was added to each well and luminescence was read using an Envision plate reader (Perkin Elmer) set with an integration time of 0.1 seconds.
Regarding `C#Cc1cc(NC(=O)c2cc(N)c3nnnn3n2)c(C(=O)O)cc1F` [Compound 1, lithium 2-(8-aminotetrazolo[1,5-b]pyridazine-6-carboxamido)-4-ethynyl-5-fluorobenzoate], the EC50 is less than 3 µM.

Still in this assay, the particulars now being: Homo sapiens, THP1-Lucia ISG; THP-1 Lucia ISG reporter cells, 24 hours; score based upon potency and efficacy relative to reference compound; read-out: ISG-LUC activation assay score.
For the compound `C#Cc1cc2nc(-c3cc(N)c4nnnn4n3)oc(=O)c2cc1F` [Compound 2, 2(8-aminotetrazolo[1,5-b]pyridazin-6-yl)-7-ethynyl-6-fluoro-4H-benzo[d][1,3]oxazin-4-one], the EC50 is less than 0.9 µM. `COC(=O)c1cc(Cl)c(Cl)cc1NC(=O)c1ccn2c(C#N)cnc2n1` [Compound 3, methyl 4,5-dichloro-2-(3-cyanoimidazo[1,2-a]pyrimidine-7-carboxamido)benzoate]: the EC50 was less than 0.9 µM. The same measure, in the same setting: for `C#Cc1cc(NC(=O)c2ccn3c(-c4cn[nH]c4)cnc3n2)c(C(=O)O)cc1F` [Compound 4, 2-(3-(1H-pyrazol-4-yl)imidazo[1,2-a]pyrimidine-7-carboxamido)-4-ethynyl-5-fluorobenzoic acid] the value was more than 20 µM; for `C=Cc1cc(NC(=O)c2cc(N)c3nnnn3n2)c(C(=O)O)cc1F` [Compound 5], more than 1 µM.

Take `COc1cc(NC(=O)c2ccc3cnnn3n2)c(C(=O)O)cc1F` [Compound 6]: the EC50 was less than 3 µM. The same measure, in the same setting: for `COc1cc(NC(=O)c2ccc3nnnn3n2)c(C(=O)O)cc1F` [Compound 7] the value was less than 3 µM; for `C#Cc1cc(NC(=O)c2cc(N)c3ncnn3n2)c(C(=O)O)cc1F` [Compound 8], more than 1 µM. Still for that read-out and setting: for `C#Cc1cc(NC(=O)c2ccc3nnnn3n2)c(C(=O)O)cc1F` [Compound 9] the value was less than 3 µM; for `COC(=O)c1cc(F)c(OC)cc1NC(=O)c1ccc2cnnn2n1` [Compound 10], less than 0.9 µM. Still for that read-out and setting: the same measure for `C#Cc1cc(NC(=O)c2cc(N)c3nnnn3n2)c(C(=O)O)nc1Cl` [Compound 11]: more than 1 µM. As for `C#Cc1cc(NC(=O)c2ccc3c(C(N)=O)nnn3n2)c(C(=O)O)cc1F` [Compound 12], the EC50 was less than 3 µM. On the same count and under the same terms, for `C#Cc1cc(NC(=O)c2ccc3c(C#N)nnn3n2)c(C(=O)O)cc1F` [Compound 13] the value was more than 1 µM; for `C#Cc1cc(NC(=O)c2cc(N)c3nnnn3n2)c(C(=O)O)cc1Cl` [Compound 14], less than 3 µM; for `COC(=O)c1cc(F)c(F)cc1NC(=O)c1cccn2cnnc12` [Compound 15], more than 1 µM. With `C=Cc1ccc(C(=O)O)c(NC(=O)c2cc(N)c3nnnn3n2)c1` [Compound 16], the EC50 is more than 1 µM.

Consider `Nc1cc(C(=O)Nc2cc(Cl)c(Cl)cc2C(=O)O)nn2nncc12` [Compound 17], for which the EC50 was more than 1 µM. With `C#Cc1cc(NC(=O)c2cc(N)n3ncnc3n2)c(C(=O)O)cc1F` [Compound 18], the EC50 was more than 1 µM.

Regarding `C#Cc1cc(NC(=O)c2cc(N)nn3nnnc23)c(C(=O)OC)cc1F` [Compound 19], the EC50 was less than 0.9 µM.

On to `C#Cc1cc(NC(=O)c2ccn3c(-c4cn[nH]c4)cnc3n2)c(C(=O)OC)cc1F` [Compound 20], for which the EC50 was more than 1 µM. On the same count and under the same terms, for `COC(=O)c1cc(F)c(F)cc1NC(=O)c1ccc2nccn2n1` [Compound 21] the value was more than 20 µM; for `O=C(Nc1cc(F)c(F)cc1C(=O)O)c1ccc2nnnn2n1` [Compound 22], more than 1 µM; for `O=C1CCn2nc(C(=O)Nc3cc(Cl)c(Cl)cc3C(=O)O)nc2N1` [Compound 23], more than 20 µM. `C#Cc1ccc(C(=O)O)c(NC(=O)c2cc(N)c3nnnn3n2)c1` [Compound 24]: the EC50 is more than 1 µM.

On to `COC(=O)c1nc(Cl)c(Cl)cc1NC(=O)c1cnc2nc[nH]c2c1` [Compound 25], for which the EC50 was more than 20 µM. Still for that read-out and setting: the same measure for `C=C(F)c1cc(NC(=O)c2cc(N)c3nnnn3n2)c(C(=O)O)cc1F` [Compound 26]: more than 1 µM; for `C#Cc1cc(NC(=O)c2cc(N)c3[nH]c(C4CC4)nc3n2)c(C(=O)OC)cc1F` [Compound 27]: more than 20 µM; for `C#Cc1ccc(NC(=O)c2cc(N)c3nnnn3n2)c(C(=O)O)c1` [Compound 28]: more than 20 µM. Still for that read-out and setting: the same measure for `Nc1cc(C(=O)Nc2cc3ccccc3cc2C(=O)O)nn2nnnc12` [Compound 29]: more than 20 µM; for `C=C(F)c1ccc(C(=O)OC)c(NC(=O)c2cc(N)n3ncnc3n2)c1` [Compound 30]: less than 0.9 µM; for `Nc1cc(C(=O)Nc2cc(C3CC3)ccc2C(=O)O)nn2nnnc12` [Compound 31]: more than 20 µM. On the same count and under the same terms, the same measure for `C#Cc1cc(NC(=O)c2cc(N)n3ccnc3n2)c(C(=O)O)cc1F` [Compound 32]: more than 1 µM. In the case of `C=C(F)c1ccc(C(=O)O)c(NC(=O)c2cc(N)c3cnnn3n2)c1` [Compound 33], the EC50 was more than 1 µM. With `C#Cc1cc(NC(=O)c2cc(N)c3nnnn3n2)c(C(=O)OC)cc1Cl` [Compound 34], the EC50 was less than 0.9 µM. With `C/C=C/c1cc(NC(=O)c2cc(N)c3nnnn3n2)c(C(=O)OC)cc1F` [Compound 35], the EC50 is less than 0.9 µM.

`C#Cc1cc(NC(=O)c2cc(N)c3nnnn3n2)c(C(=O)O)cc1C#N` [Compound 36]: the EC50 was less than 3 µM. In the case of `C#Cc1cc(NC(=O)c2ccn3nc(N)nc3n2)c(C(=O)O)cc1F` [Compound 37], the EC50 is more than 20 µM. The same measure, in the same setting: for `COC(=O)c1sc(C)cc1NC(=O)c1cc(N)c2nnnn2n1` [Compound 38] the value was more than 1 µM; for `CC#Cc1cc(NC(=O)c2cc(N)c3nnnn3n2)c(C(=O)OC)cc1F` [Compound 39], more than 1 µM; for `COC(=O)c1cc(F)c(C)cc1NC(=O)c1cc(N)c2nnnn2n1` [Compound 40], less than 0.9 µM. For the compound `N#Cc1cc(NC(=O)c2cc(N)c3nnnn3n2)c(C(=O)O)cc1F` [Compound 41], the EC50 was more than 1 µM. Turning to `C#Cc1cc(NC(=O)c2ccc3nnnn3n2)c(C(=O)OC)cc1F` [Compound 42], the EC50 is less than 0.9 µM. Still for that read-out and setting: for `Cc1cc(NC(=O)c2cc(N)c3nnnn3n2)c(C(=O)O)cc1F` [Compound 43] the value was more than 1 µM; for `C#Cc1cc2nc(-c3ccc4nnnn4n3)oc(=O)c2cc1F` [Compound 44], less than 0.9 µM; for `CCOC(=O)c1nc(Cl)sc1NC(=O)c1cc(N)c2nnnn2n1` [Compound 45], more than 1 µM.

With `C#Cc1cc(NC(=O)c2cc(N)n3c(C#N)cnc3n2)c(C(=O)O)cc1F` [Compound 46], the EC50 was more than 20 µM. Still for that read-out and setting: the same measure for `COc1cc(NC(=O)c2cc(N)c3nnnn3n2)c(C(=O)OC(C)C)cc1F` [Compound 47]: more than 1 µM. On to `COc1cc2nc(-c3ccc4nnnn4n3)oc(=O)c2cc1F` [Compound 48], for which the EC50 was less than 0.9 µM.

On to `COc1cc2nc(-c3cc(N)c4nnnn4n3)oc(=O)c2cc1F` [Compound 49], for which the EC50 was less than 0.9 µM.

For the compound `C#Cc1cc(NC(=O)c2cc(N)nn3nnnc23)c(C(=O)O)cc1F` [Compound 50], the EC50 was more than 1 µM. Take `C#Cc1cc(NC(=O)c2ccn3nc(-c4cn[nH]c4)nc3n2)c(C(=O)O)cc1F` [Compound 51]: the EC50 was more than 20 µM.

With `C#Cc1cc(NC(=O)c2ccc3c(C#N)nnn3n2)c(C(=O)OC)cc1F` [Compound 52], the EC50 is more than 1 µM. In the case of `COc1cc(NC(=O)c2cc(N)c3nnnn3n2)c(C(=O)OC(C)OC(C)=O)cc1F` (stereo not drawn) [Compound 54], the EC50 is less than 0.9 µM. In the case of `COc1cc(NC(=O)c2ccc3c(ncn3C)n2)c(C(=O)O)cc1F` [Compound 55], the EC50 is more than 20 µM.

Source of the values: patent publication US20220332720A1, “BICYCLIC AGONISTS OF STIMULATOR OF INTERFERON GENES STING” (The Scripps Research Institute, priority 2019, published 2022).
